Target: T1, TAAR1 (Mus musculus, UniProt Q923Y8)
T1 construct: expressed in transfected cells; host or cells: HEK293 cells (ATCC #CRL-1573), stably transfected with pIRESneo2 expression plasmid; membrane preparation
Experiment: Radioligand binding assay on membranes of HEK293 cells stably expressing TAAR1
Details: Ki value (μM) in mouse, radioligand [3H]-rac-2-(1,2,3,4-tetrahydro-1-naphthyl)-2-imidazoline 60 nM, 4° C., 30 min
Protocol: The Expand High Fidelity PCR System (Roche Diagnostics) was used with 1.5 mM Mg^2+ and purified PCR products were cloned into pCR2.1-TOPO cloning vector (Invitrogen) following the instructions of the manufacturer. PCR products were subcloned into the pIRESneo2 vector (BD Clontech, Palo Alto, Calif.), and expression vectors were sequence verified before introduction in cell lines.
For the generation of stably transfected cell lines HEK293 cells were transfected with the pIRESneo2 expression plasmids containing the TAAR coding sequences (described above) with Lipofectamine 2000 (Invitrogen) according to the instructions of the manufacturer, and 24 hrs post transfection the culture medium was supplemented with 1 mg/ml G418 (Sigma, Buchs, Switzerland). After a culture period of about 10 d clones were isolated, expanded and tested for responsiveness to trace amines (all compounds purchased from Sigma) with the cAMP Biotrak Enzyme immunoassay (EIA) System (Amersham) following the non-acetylation EIA procedure provided by the manufacturer.
Cells at confluence were rinsed with ice-cold phosphate buffered saline without Ca^2+ and Mg^2+ containing 10 mM EDTA and pelleted by centrifugation at 1000 rpm for 5 min at 4° C. The pellet was then washed twice with ice-cold phosphate buffered saline and cell pellet was frozen immediately by immersion in liquid nitrogen and stored until use at −80° C. Cell pellet was then suspended in 20 ml HEPES-NaOH (20 mM), pH 7.4 containing 10 mM EDTA, and homogenized with a Polytron (PT 3000, Kinematica) at 10,000 rpm for 10 s. The homogenate was centrifuged at 48,000×g for 30 min at 4° C. and the pellet resuspended in 20 ml HEPES-NaOH (20 mM), pH 7.4 containing 0.1 mM EDTA (buffer A), and homogenized with a Polytron at 10,000 rpm for 10 s. The homogenate was then centrifuged at 48,000×g for 30 min at 4° C. and the pellet resuspended in 20 ml buffer A, and homogenized with a Polytron at 10,000 rpm for 10 s. Protein concentration was determined by the method of Pierce (Rockford, Ill.). […] Non-specific binding was defined as the amount of [^3H]-rac-2-(1,2,3,4-tetrahydro-1-naphthyl)-2-imidazoline bound in the presence of the appropriate unlabelled ligand (10 μM). Competing ligands were tested in a wide range of concentrations (10 pM-30 μM). […] Each experiment was performed in duplicate. All incubations were terminated by rapid filtration through UniFilter-96 plates (Packard Instrument Company) and glass filter GF/C, pre-soaked for at least 2 h in polyethylenimine 0.3%, and using a Filtermate 96 Cell Harvester (Packard Instrument Company). The tubes and filters were then washed 3 times with 1 ml aliquots of cold buffer B. Filters were not dried and soaked in Ultima gold (45 μl/well, Packard Instrument Company) and bound radioactivity was counted by a TopCount Microplate Scintillation Counter (Packard Instrument Company).

T1 sequence (Q923Y8 whole entry): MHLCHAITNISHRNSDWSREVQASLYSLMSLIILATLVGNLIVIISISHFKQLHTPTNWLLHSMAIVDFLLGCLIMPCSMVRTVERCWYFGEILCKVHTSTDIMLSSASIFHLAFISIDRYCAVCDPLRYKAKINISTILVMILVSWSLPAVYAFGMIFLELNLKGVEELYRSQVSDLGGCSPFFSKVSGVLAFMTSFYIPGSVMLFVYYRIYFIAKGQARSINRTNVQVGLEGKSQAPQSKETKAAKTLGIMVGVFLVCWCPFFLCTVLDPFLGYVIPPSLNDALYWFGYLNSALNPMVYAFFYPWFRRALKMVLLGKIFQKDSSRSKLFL

Row | Compound | Ki
1 | CC1CCN(c2ncc(C(=O)Nc3cccc(Cl)c3)cc2Cl)CC1 [Example 155, 3′-Chloro-4-methyl-3,4,5,6-tetrahydro-2H-[1,2′]bipyridinyl-5′-carboxylicacid (3-chloro-phenyl)-amide] | 0.023 µM
2 | COc1cccc(NC(=O)c2cnc(NC(C)C)c(C(F)(F)F)c2)c1 [Example 200] | 0.0597 µM
3 | COc1cccc(NC(=O)c2cccc(S(=O)(=O)N3CCCCCC3)c2)c1 [Example 170, 3-(Azepane-1-sulfonyl)-N-(3-methoxy-phenyl)-benzamide] | 0.024 µM
4 | O=C(Nc1cccc(Cl)c1)c1ccc(N2CCCC2)c(C(F)(F)F)c1 [Example 186, N-(3-Chloro-phenyl)-4-pyrrolidin-1-yl-3-trifluoro-methyl-benzamide] | 0.02 µM
5 | COc1cccc(NC(=O)c2ccc(N3CCOCC3)c(C(F)(F)F)c2)c1 [Example 150, N-(3-Methoxy-phenyl)-4-morpholin-4-yl-3-trifluoromethyl-benzamide] | 0.086 µM
6 | COc1cccc(NC(=O)c2cnc(NCc3ccccc3)c(C(F)(F)F)c2)c1 [Example 199] | 0.0056 µM
7 | CCCCNc1ncc(C(=O)Nc2cccc(OC)c2)cc1Cl [Example 208] | 0.0463 µM
8 | CCCCNc1ccc(C(=O)Nc2cccc(OC)c2)cc1C(F)(F)F [Example 145, 4-Butylamino-N-(3-methoxy-phenyl)-3-trifluoromethyl-benzamide] | 0.01 µM

Same assay, conditions: radioligand [3H]-rac-2-(1,2,3,4-tetrahydro-1-naphthyl)-2-imidazoline 60 nM, 4° C., 30 min, read-out: Ki value (μM) in mouse

Row | Ki | Compound
9 | 0.009 µM | CN1CCN(c2ccc(C(=O)Nc3cccc(Cl)c3)cn2)CC1 [Example 135, N-(3-Chloro-phenyl)-6-(4-methyl-piperazin-1-yl)-nicotinamide]
10 | 0.048 µM | COc1cccc(NC(=O)c2cnc(Cl)c(Cl)c2)c1 [Example 78, 5,6-Dichloro-N-(3-methoxy-phenyl)-nicotinamide]
11 | 0.038 µM | O=C(Nc1cccc(Cl)c1)c1cnc(N2CCCCC2)c(Cl)c1 [Example 163, 3′-Chloro-3,4,5,6-tetrahydro-2H-[1,2′]bipyridinyl-5′-carboxylicacid (3-chloro-phenyl)-amide]
12 | 0.0348 µM | O=C(Nc1cccc(Cl)c1)c1cnc(N2CCNCC2)c(Cl)c1 [Example 210, 5-Chloro-N-(3-chloro-phenyl)-6-piperazin-1-yl-nicotinamide]
13 | 0.076 µM | O=C(Nc1cccc(Cl)c1)c1ccc(N2CCNCC2)nc1 [Example 84, N-(3-Chloro-phenyl)-6-piperazin-1-yl-nicotinamide]
14 | 0.049 µM | Cc1cnc(C)n1Cc1cccc(NC(=O)c2ccc(Cl)c(Cl)c2)c1 [Example 177, 3,4-Dichloro-N-[3-(2,5-dimethyl-imidazol-1-ylmethyl)-phenyl]-benzamide]
15 | 0.079 µM | O=C(Nc1cccc(Cl)c1)c1cnc(Cl)c(Cl)c1 [Example 47, 5,6-Dichloro-N-(3-chloro-phenyl)-nicotinamide]
16 | 0.068 µM | Cc1cccc(C(=O)Nc2ccc(Cl)c(Cl)c2)c1 [Example 220, N-(3,4-Dichloro-phenyl)-3-methyl-benzamide]
17 | 0.008 µM | COc1cccc(NC(=O)c2cnc(Cl)c(C(F)(F)F)c2)c1 [Example 178, 6-Chloro-N-(3-methoxy-phenyl)-5-trifluoromethyl-nicotinamide]
18 | 0.0101 µM | COc1cccc(NC(=O)c2cnc(N3CCCC3)c(Cl)c2)c1 [Example 205]
19 | 0.1 µM | COc1cccc(NC(=O)c2ccc(F)c(Cl)c2)c1 [Example 70, 3-Chloro-4-fluoro-N-(3-methoxy-phenyl)-benzamide]
20 | 0.027 µM | CC(C)Nc1ncc(C(=O)Nc2cccc(Cl)c2)cc1Cl [Example 152, 5-Chloro-N-(3-chloro-phenyl)-6-isopropylamino-nicotinamide]
21 | 0.001 µM | CN1CCN(c2ncc(C(=O)Nc3cccc(Cl)c3)cc2Cl)CC1 [Example 164, 5-Chloro-N-(3-chloro-phenyl)-6-(4-methyl-piperazin-1-yl)-nicotinamide]

Second part, the molecule before the results:

Row | Compound | Ki
22 | CCc1cccc(NC(=O)c2ccc(N3CCCC3)c(C(F)(F)F)c2)c1 [Example 180, N-(3-Ethyl-phenyl)-4-pyrrolidin-1-yl-3-trifluoromethyl-benzamide] | 0.021 µM
23 | CCNc1ccc(C(=O)Nc2cccc(OC)c2)cc1C(F)(F)F [Example 148, 4-Ethylamino-N-(3-methoxy-phenyl)-3-trifluoromethyl-benzamide] | 0.022 µM
24 | CCCNc1ccc(C(=O)Nc2cccc(OC)c2)cc1C(F)(F)F [Example 144, N-(3-Methoxy-phenyl)-4-propylamino-3-trifluoromethyl-benzamide] | 0.032 µM
25 | COc1cccc(NC(=O)c2ccc(Cl)c(C(F)(F)F)c2)c1 [Example 216, 4-Chloro-N-(3-methoxy-phenyl)-3-trifluoromethyl-benzamide] | 0.0058 µM
26 | COc1cccc(NC(=O)c2ccc(F)c(C(F)(F)F)c2)c1 [Example 73, 4-Fluoro-N-(3-methoxy-phenyl)-3-trifluoromethyl-benzamide] | 0.03 µM
27 | CCCNc1ccc(C(=O)Nc2cccc(OC)c2)cc1[N+](=O)[O-] [Example 87, N-(3-Methoxy-phenyl)-3-nitro-4-propylamino-benzamide] | 0.004 µM
28 | CCOc1cccc(NC(=O)c2ccc(N3CCCC3)c(C(F)(F)F)c2)c1 [Example 181, N-(3-Ethoxy-phenyl)-4-pyrrolidin-1-yl-3-trifluoro-methyl-benzamide] | 0.001 µM
29 | O=C(Nc1cccc(F)c1)c1ccc(N2CCCC2)c(C(F)(F)F)c1 [Example 185, N-(3-Fluoro-phenyl)-4-pyrrolidin-1-yl-3-trifluoro-methyl-benzamide] | 0.009 µM
30 | Cc1cccc(NC(=O)c2ccc(N3CCCC3)c(C(F)(F)F)c2)c1 [Example 189, 4-Pyrrolidin-1-yl-N-m-tolyl-3-trifluoro-methyl-benzamide] | 0.016 µM
31 | COc1cccc(NC(=O)c2ccc(Cl)c([N+](=O)[O-])c2)c1 [Example 12, 4-Chloro-N-(3-methoxy-phenyl)-3-nitro-benzamide] | 0.037 µM
32 | COc1cccc(NC(=O)c2ccc(N3CCCC3)c(C(F)(F)F)c2)c1 [Example 137, N-(3-Methoxy-phenyl)-4-pyrrolidin-1-yl-3-trifluoromethyl-benzamide] | 0.002 µM
33 | COc1cccc(NC(=O)c2ccc(N3CCC(C)CC3)c([N+](=O)[O-])c2)c1 [Example 27, N-(3-Methoxy-phenyl)-4-(4-methyl-piperidin-1-yl)-3-nitro-benzamide] | 0.002 µM
34 | COc1cccc(NC(=O)c2ccc(NCc3ccccc3)c([N+](=O)[O-])c2)c1 [Example 88, 4-Benzylamino-N-(3-methoxy-phenyl)-3-nitro-benzamide] | 0.005 µM
35 | COc1cccc(NC(=O)c2ccc(N3CCC(C)CC3)c(C(F)(F)F)c2)c1 [Example 143, N-(3-Methoxy-phenyl)-4-(4-methyl-piperidin-1-yl)-3-trifluoromethyl-benzamide] | 0.007 µM
36 | COc1cccc(NC(=O)c2ccc(F)c([N+](=O)[O-])c2)c1 [Example 85, 4-Fluoro-N-(3-methoxy-phenyl)-3-nitro-benzamide] | 0.09 µM
37 | O=C(Nc1ccccc1)c1ccc([N+](=O)[O-])c(C(F)(F)F)c1 [Example 324, 4-Nitro-N-phenyl-3-trifluoromethyl-benzamide] | 0.0674 µM

Reference: patent US20090036420A1, “BENZAMIDE DERIVATIVES AND THEIR USE FOR TREATING CNS DISORDERS” (priority 2007, published 2009)
